Consider five molecules from patent publication US20260022142A1, “MACROCYCLIC IMMUNOMODULATORS” (Bristol-Myers Squibb Company, priority 2022, published 2026).

Numbered stars: 1 amine (or outer) side, 2 acyl side, 3 side chain; on linkers, the order of the positions; unused ones are H or OH. Bridge positions count the residues as written; N and C are the ends. Square brackets hold non-standard residues; d marks the D form. Peptide text beside a SMILES is read from it. * marks the point of attachment. ξ: configuration not given here. Phe(4-COOH) = N[C@@H](Cc1ccc(C(=O)O)cc1)C(=O)O; Bip = N[C@@H](Cc1ccc(-c2ccccc2)cc1)C(=O)O; NH(CH2)14COOH = O=C(O)CCCCCCCCCCCCCCN*; Phe(3-Me) = Cc1cccc(C[C@H](N)C(=O)O)c1; γGlu = O=C(O)[C@H](CCC(=O)[*:2])N[*:1]; Val(3-OH) = CC(C)(O)[C@H](N)C(=O)O; Val(3-F) = CC(C)(F)[C@H](N)C(=O)O; Cha = N[C@@H](CC1CCCCC1)C(=O)O; Thr(3ξ) = CC(O)[C@H](N)C(=O)O; Carboxymethyl = O=C(O)C*; Orn = NCCC[C@H](N)C(=O)O; Aun = NCCCCCCCCCCC(=O)O; Dab = NCC[C@H](N)C(=O)O; Dap = NC[C@H](N)C(=O)O; AEEA = NCCOCCOCC(=O)O

T1 sequence (Q15116 25-288): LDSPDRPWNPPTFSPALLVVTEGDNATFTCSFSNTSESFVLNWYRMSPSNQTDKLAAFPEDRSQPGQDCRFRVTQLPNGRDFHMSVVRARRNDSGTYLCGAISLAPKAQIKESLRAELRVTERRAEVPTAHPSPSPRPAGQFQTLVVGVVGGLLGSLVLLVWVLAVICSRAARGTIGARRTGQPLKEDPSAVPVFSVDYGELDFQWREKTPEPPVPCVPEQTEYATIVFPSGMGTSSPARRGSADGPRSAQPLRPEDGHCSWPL

The assay concerns the target T1, PD-1/PD-L1 interaction (PE-labeled human PD-L1-Ig binding to Jurkat cell line over-expressing human PD-1) (Homo sapiens, UniProt Q15116).
T1 construct: expressed in transfected cells; host or cells: Jurkat
As to the kind of experiment: Jurkat-PD-1 Cell Binding High-Content Screening Assay (CBA). The class given is cell-based. Particulars: Jurkat cell line over-expressing human PD-1; PE-labeled PD-L1-Ig 20 nM final; read-out: Jurkat hPD1-PDL1 IC50. The method, boiled down:
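Jurkat-hPD-1 cells, DMEM/10% FCS; cpd 2 h 37° C; PE-PD-L1-Ig 20 nM final, 1 h; 4% PFA fix + Hoechst 33342, 3× dPBS wash; high-content imaging read-out.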
For the molecule `CC(C)C[C@H]1NC(=O)[C@H](CCCN)NC(=O)[C@H](C(C)C)NC(=O)[C@H](Cc2ccc(-c3ccccc3)cc2)NC(=O)[C@H](C(C)C)NC(=O)[C@H](Cc2c[nH]c3ccccc23)NC(=O)[C@H](CC(=O)O)NC(=O)[C@H](Cc2ccc(OCC(=O)O)cc2)NC(=O)[C@H](CN)NC(=O)CSC[C@@H](C(=O)N[C@@H](CCN)C(=O)NCCCCCCCCCCC(=O)O)NC(=O)[C@H](CN)NC(=O)[C@H](C(C)O)NC(=O)[C@H](CC2CCCCC2)NC(=O)[C@H](CCN)NC1=O` (stereo partly drawn) [Compound 3647] ({CH2CO}-[Dap]Y(Carboxymethyl)DWV[Bip]V[Orn][dL][Dab][Cha][Thr(3ξ)][Dap]C[Dab][Aun]-OH; thioether N-14), the IC50 was 27.7 nM.
For the molecule `Cc1cccc(C[C@@H]2NC(=O)[C@H](CC(=O)O)NC(=O)[C@H](Cc3ccc(OCC(=O)O)cc3)NC(=O)[C@H](CCCNC(=N)N)NC(=O)CSC[C@@H](C(=O)N[C@@H](CCN)C(=O)NCCCCCCCCCCC(=O)O)NC(=O)[C@H](CO)NC(=O)[C@H](C(C)(C)F)NC(=O)[C@H](CC3CCCCC3)NC(=O)[C@H](CCN)NC(=O)[C@@H](CC(C)C)NC(=O)[C@H](CCCN)NC(=O)[C@H](Cc3ccc(OCC(=O)O)cc3)NC(=O)[C@H](Cc3ccc(-c4ccccc4)cc3)NC(=O)[C@H](Cc3ccc(O)cc3)NC2=O)c1` [Compound 2121] ({CH2CO}-RY(Carboxymethyl)D[Phe(3-Me)]Y[Bip]Y(Carboxymethyl)[Orn][dL][Dab][Cha][Val(3-F)]SC[Dab][Aun]-OH; thioether N-14), the IC50 amounted to 8.3 nM.
To `Cc1cccc(C[C@@H]2NC(=O)[C@H](CC(=O)O)NC(=O)[C@H](Cc3ccc(OCC(=O)O)cc3)NC(=O)[C@H](CC(C)C)NC(=O)CSC[C@@H](C(=O)N[C@@H](CCN)C(=O)NCCOCCOCC(=O)N[C@@H](CCC(=O)O)C(=O)N[C@@H](CCC(=O)NCCOCCOCC(=O)NCCCCCCCCCCCCCCC(=O)O)C(=O)O)NC(=O)[C@H](CC(=O)O)NC(=O)[C@H](C(C)(C)O)NC(=O)[C@H](CC3CCCCC3)NC(=O)[C@H](CCN)NC(=O)[C@@H](CC(C)C)NC(=O)[C@H](CCCN)NC(=O)[C@H](Cc3ccc(C(=O)O)cc3)NC(=O)[C@H](Cc3ccc(-c4ccccc4)cc3)NC(=O)[C@H](Cc3ccc(C(=O)O)cc3)NC2=O)c1` [Compound 3892] ({CH2CO}-LY(Carboxymethyl)D[Phe(3-Me)][Phe(4-COOH)][Bip][Phe(4-COOH)][Orn][dL][Dab][Cha][Val(3-OH)]DC[Dab][AEEA]E[γGlu][AEEA]-{NH(CH2)14COOH}; thioether N-14) belongs 388 nM; to `Cc1cccc(C[C@@H]2NC(=O)[C@H](CC(=O)O)NC(=O)[C@H](Cc3ccc(OCC(=O)O)cc3)NC(=O)[C@H](CN)NC(=O)CSC[C@@H](C(=O)NCCOCCOCC(=O)NCCCCCCCCCCC(=O)O)NC(=O)[C@H](CCCNC(=N)N)NC(=O)[C@H](C(C)C)NC(=O)[C@H](CC3CCCCC3)NC(=O)[C@H](CCN)NC(=O)[C@@H](CC(C)C)NC(=O)[C@H](CCCN)NC(=O)[C@H](C(C)C)NC(=O)[C@H](Cc3ccc(-c4ccccc4)cc3)NC(=O)[C@H](C(C)C)NC2=O)c1` [Compound 2568] ({CH2CO}-[Dap]Y(Carboxymethyl)D[Phe(3-Me)]V[Bip]V[Orn][dL][Dab][Cha]VRC[AEEA][Aun]-OH; thioether N-14), 12.7 nM.
Next, `Cc1cccc(C[C@@H]2NC(=O)[C@H](CC(=O)O)NC(=O)[C@H](Cc3ccc(OCC(=O)O)cc3)NC(=O)[C@H](CN)NC(=O)CSC[C@@H](C(=O)N[C@@H](CCCCN)C(=O)NCCCCCCCCCCC(=O)O)NC(=O)[C@H](C(C)O)NC(=O)[C@H](C(C)C)NC(=O)[C@H](CC3CCCCC3)NC(=O)[C@H](Cc3cnc[nH]3)NC(=O)[C@@H](CC(C)C)NC(=O)[C@H](CCCN)NC(=O)[C@H](CCC(=O)O)NC(=O)[C@H](Cc3ccc(-c4ccccc4)cc3)NC(=O)[C@H](C(C)C)NC2=O)c1` (stereo partly drawn) [Compound 3160] ({CH2CO}-[Dap]Y(Carboxymethyl)D[Phe(3-Me)]V[Bip]E[Orn][dL]H[Cha]V[Thr(3ξ)]CK[Aun]-OH; thioether N-14): 37.5 nM.

The term IC50 denotes the concentration that gives 50% inhibition.
